For assay [1], the system named is R3 cells (osteoclast precursor cells existing in an inflammatory synovial membrane). Description: Suppression of differentiation of R3 cells into osteoclasts (in vitro). In kind it is cell-based, mouse. The following applies: 10 ng/ml M-CSF, 100 ng/ml RANKL, 0.5, 1, or 2 μM thiostrepton, 96-well plate, FIG. 2. An excerpt: FIG. 2 is figures showing the effect of thiostrepton on the osteoclast differentiation of R3s (in vitro). Photographs indicate that osteoclast differentiation is suppressed by thiostrepton administration (reds show osteoclasts, and greens show precursor cells).
A) CD45-positive cells of blood and a synovial membrane of a collagen-induced arthritis model mouse (CIA model) were selected by flow cytometry, and the cell fractions were identified with the fluorescence of CX3CR1-EGFP and Ly6C-APC. A CX3CR1lowLy6Chi fraction in blood was defined as R1, a CX3CR1lowLy6Chi fraction in an inflammatory synovial membrane was defined as R2, and a CX3CR1hiLy6Cint fraction was defined as R3 (FIG. 1A).

The subject of assay [2] is Collagen-induced arthritis (CIA) mice. As to the kind of experiment: Effect in collagen-induced arthritis (CIA) model mouse (in vivo). On the set-up: species or system DBA-1/J mice. As to conditions: 20 mg/kg or 50 mg/kg intraperitoneally every other day from the twenty-first day, compared with the control group. As to the method:
Collagen-induced arthritis (CIA) mice were divided into three groups, and 20 mg/kg or 50 mg/kg of thiostrepton or a base (contrast) was intraperitoneally administered every other day from the twenty-first day. Methods for producing and evaluating CIA mice are as follows.
Arthritis was caused using 8- to 10-week-old DBA-1/J mice. Chicken type II collagen was dissolved in a 0.05 M acetic acid solution and rotated at 4° C. all night to make a solution at a concentration of 4.0 mg/ml, and the solution was mixed with the same volume of Freund's complete adjuvant. On the first day, 100 μl of the emulsion was injected into the tail of each of the above-mentioned DBA-1/J mice for immunization, and the administration was repeated in the same way on the twenty-first day. The severity of arthritis was evaluated in accordance with a semi-quantitative score method which consists of an established 5-point scale. The scale is as follows: 0: no swelling, 1: slight swelling only in the heel or the tarsal bones, 2: slight swelling from the heel to the tarsal bones, 3: considerable swelling from the heel to the metatarsal articulation, and 4: severe swelling spreading over an area including the heel, the foot, and the toes. […]
Image analysis using micro-CT was performed. The osteoclastic score was determined with reference to previous study (refer to O'Brien, Arthritis Rheumatol. 2016).

Assay [3] has as its system CX3CR1-positive HLA-DRhi cells from synovial fluid and articulation tissue of a rheumatoid arthritis patient. As to the kind of experiment: Osteoclast differentiation of CX3CR1-positive HLA-DRhi cells of a rheumatoid arthritis patient. In kind it is cell-based. The following applies: human RA patient cells, 50 ng/ml M-CSF, 100 ng/ml RANKL, 0.5 μM thiostrepton, 96-well plate; FIG. 5B. Here is the method: The photographs indicate that the osteoclast differentiation is inhibited by thiostrepton administration.
When these cells were collected by flow cytometry and cultured on a 96-well plate with 50 ng/ml M-CSF, 100 ng/ml RANKL, and 0.5 μM thiostrepton added.

Entries after “also recorded” stand apart in the source; their conditions may differ.

On to `C=C(NC(=O)C(=C)NC(=O)c1csc(C2=N[C@@H]3c4csc(n4)[C@H]4NC(=O)c5csc(n5)[C@H]([C@](C)(O)[C@@H](C)O)NC(=O)[C@H]5CSC(=N5)/C(=C/C)NC(=O)[C@H]([C@@H](C)O)NC(=O)c5csc(n5)[C@]3(CC2)NC(=O)[C@H](C)NC(=O)C(=C)NC(=O)[C@H](C)NC(=O)[C@H]([C@@H](C)CC)N[C@@H]2C=Cc3c([C@H](C)O)cc(nc3[C@H]2O)C(=O)O[C@@H]4C)n1)C(N)=O` [thiostrepton], for which, in assay [1], the “capability to differentiate into osteoclasts (number of nuclei contained in osteoclasts in one visual field)” value is on record as “remarkably suppressed”. In addition, the arthritis score result in assay [2] (FIG. 3A) is on record as “decreased significantly”. In assay [2] (FIG. 3B), the “osteoclastic score imaged by micro-CT (erosion score)” value is reported as “decreased significantly”. For the same compound, the “differentiation into osteoclasts (number of nuclei contained in osteoclasts in one visual field)” value in assay [3] is reported as “inhibited; also recorded: significantly suppressed”.

The values are drawn from patent publication US20210393734A1, “THERAPEUTIC AGENT FOR ARTHRITIS” (OSAKA UNIVERSITY, priority 2018, published 2021).
